The test concerns IFNα-Induced STAT Phosphorylation in Human Whole Blood. Nature of the test: IFNα-Induced STAT Phosphorylation in Human Whole Blood. The class given is cell-based. The note with it: 1 h incubation with compound, 1000 U/mL recombinant human IFNα A/D for 15 min, pSTAT5 (pY694) median fluorescence intensity in CD3 positive population, read-out: hWB IC50.
In the case of `[2H]C([2H])([2H])NC(=O)c1nnc(NC(=O)C2CC2)cc1Nc1cccc(-c2ncc(N3CCOC3=O)cn2)c1OC` [Example 113], the IC50 stood at 36 nM.

With `[2H]C([2H])([2H])NC(=O)c1nnc(NC(=O)C2CC2)cc1Nc1cccc(-c2ncc(F)cc2C#N)c1OC` [Example 114], the IC50 came out at 242 nM.

As to `[2H]C([2H])([2H])NC(=O)c1cnc(NC(=O)C2CC2)cc1Nc1cccc(-c2ncc(F)cc2C#N)c1OC` [Example 115], the IC50 worked out at 682 nM.

On to `[2H]C([2H])([2H])NC(=O)c1nnc(NC(=O)C2CC2)cc1Nc1cccc(-c2ncc(N3CCN(C)C3=O)cn2)c1OC` [Example 116], for which the IC50 came out at 73 nM.

In the case of `[2H]C([2H])([2H])NC(=O)c1nnc(NC(=O)C2CC2)cc1Nc1cccc(-c2ncc(N3CCOCC3=O)cn2)c1OC` [Example 117], the IC50 worked out at 111 nM.

Source of the values: patent publication US12479831B2, “Substituted N(-methyl-D3)pyridazine-3-carboxamide or M-(methyl-D3)-nicotinamide compounds as IL-12, IL-23 and/or IFNα modulators” (BRISTOL-MYERS SQUIBB COMPANY, priority 2020, dated 2025).
